Laboratory results reported in patent publication US11951149B2, “Intranasal vasopressin treatment of social deficits in autism” (The Board of Trustees of the Leland Stanford Junior …, priority 2018, dated 2024).

Experiments:
[1] = test system: high-functioning adults with ASD; conditions: single dose intravenous, cited from earlier work
ASD in children = test: Intranasal administration of desmopressin in children with ASD; assay type: in vivo, human
children with ASD [2] = test: Adverse events assessed by the DOTES and OAS, 4-week trial; assay type: in vivo, human
Protocol: (§1) Commercially available injectable sterile AVP was used in this study. It was initially purchased from JHP Pharmaceuticals (Rochester, MI), which was subsequently acquired by Par Sterile Products (Chestnut Ridge, NY) in 2014. The placebo solution was prepared by Koshland Pharm (San Francisco, CA) and consisted of ingredients used in the active solution except the AVP compound. A pharmacist transferred 25 mL of AVP (20 International Units (IU)/mL) or placebo solutions into sterile amber glass bottles with metered (0.1 mL/per puff) nasal spray applicators to ensure that the AVP and placebo applicators were visually indistinguishable to the research team. These applicators were coded and given to the Stanford Health Care's Investigational Drug Service (IDS) for refrigerated storage (2-8° C.) and subsequent dispensing. Following the first AVP dose (see below), the dose escalation regimen for all participants involved administration of 4 IU twice daily (or BID) of AVP during week 1 and 8 IU BID of AVP during week 2. Participants aged 6 to 9.5 years then received 12 IU BID of AVP during weeks 3 and 4, while participants aged 9.6 to 12.92 years received 16 IU BID of AVP during weeks 3 and 4.
(§2) Parents were trained in the clinic by research staff to administer the nasal spray to their child. The first dose was administered in the ADDC under the direct supervision of the research team (with the first dose being 12 IU for participants aged 6 to 9.5 years and 16 IU for participants aged 9.6 to 12.92 years). Vital signs were monitored before, and 20 minutes after, initial single-dose nasal spray administration to monitor for acute, unanticipated reactions to AVP. Participants' parents then received two 25 mL nasal spray bottles containing either AVP or placebo for 4 weeks of at-home dispensing (as described above), for which they were responsible for their child's continued twice daily dosing. Parents were instructed to keep the bottles refrigerated with only brief room temperature excursions (i.e., for dosing). Participants underwent weekly safety/tolerability assessments in the clinic to monitor for adverse events. On completion of the 4-week treatment period, behavioral data, safety/tolerability data, and blood samples were again collected. After completion of the trial, participants randomized to the placebo group were invited to participate in an optional open-label 4-week AVP treatment phase to ensure that all children had the opportunity to receive AVP treatment.
(§3) Throughout the trial, safety and tolerability were assessed weekly using the following measurements: vital signs, 12-lead electrocardiogram, clinical chemistry labs, and height and weight. Side effects were evaluated with the DOTES (51), and modified to assess potential side effects that might be related to AVP such as hyponatremia/water intoxication. Finally, based on animal studies showing that AVP can induce aggressive behavior under some circumstances (39, 40), the OAS was used to monitor for observable aggressive or violent behavior in this trial (52).
One-way LS-GLMs were used to test the change from baseline between the AVP and placebo treatment groups following 4-week treatment for adverse events and safety measures. Fisher's exact Test was used to test for differences between treatment conditions for participant characteristics and concomitant medications. Suitable transformations were applied as needed.

children with ASD [3] = test: Vital signs, change from baseline, 4-week trial; assay type: in vivo, human; conditions: after 4-week treatment
Protocol: as §1, §2, §3
(§4) Treatment effect generalizability was evaluated using: 1) the RBS-R which measures a comprehensive list of repetitive and stereotyped behaviors (61); and 2) The Spence Children's Anxiety Scale which assesses the severity of trait anxiety symptoms broadly in line with DSM dimensions of anxiety disorder (62). Anxiety was selected as an outcome measure due to its significant comorbidity with ASD (63). Finally, safety and tolerability were evaluated using: 1) the DOTES (51); and 2) change from baseline in electrocardiogram, clinical chemistry labs, vital signs (i.e., blood pressure, heart rate, temperature), as well as height and weight.
(§5) One-way LS-GLMs were used to test the change from baseline between the AVP and placebo treatment groups following 4-week treatment for adverse events and safety measures. […]

children with ASD [4] = test: 12-lead electrocardiogram, change from baseline, 4-week trial; assay type: in vivo, human; conditions: after 4-week treatment
Protocol: as §1, §2, §3, §4, §5

children with ASD [5] = test: Clinical chemistry, change from baseline, 4-week trial; assay type: in vivo, human; conditions: after 4-week treatment
Protocol: as §1, §2, §3
Whole blood was drawn from the child's antecubital region by a pediatric phlebotomist using standard protocols at Lucile Packard Children's Hospital outpatient laboratory. A portion of the sample was collected per standard laboratory protocols and sent for clinical chemistry analysis. To evaluate AVP concentrations, whole blood was also collected into chilled EDTA-treated vacutainer tubes and immediately placed on wet ice. Samples were promptly centrifuged (1600×g at 4° C. for 15 min), the plasma fraction aliquoted into polypropylene tubes, and flash-frozen on dry ice. Whole blood was also collected into PAXgene RNA tubes (Qiagen, CA) and processed per manufacturer instruction to evaluate neuropeptide receptor gene expression [i.e., oxytocin receptor (OXTR) and AVPR1A]. All samples were stored at −80° C. until quantification. […]

children with ASD [6] = test: Height and weight, change from baseline, 4-week trial; assay type: in vivo, human; conditions: after 4-week treatment
Protocol: Commercially available injectable sterile AVP was used in this study. It was initially purchased from JHP Pharmaceuticals (Rochester, MI), which was subsequently acquired by Par Sterile Products (Chestnut Ridge, NY) in 2014. The placebo solution was prepared by Koshland Pharm (San Francisco, CA) and consisted of ingredients used in the active solution except the AVP compound. A pharmacist transferred 25 mL of AVP (20 International Units (IU)/mL) or placebo solutions into sterile amber glass bottles with metered (0.1 mL/per puff) nasal spray applicators to ensure that the AVP and placebo applicators were visually indistinguishable to the research team. […]
Parents were trained in the clinic by research staff to administer the nasal spray to their child. […] Vital signs were monitored before, and 20 minutes after, initial single-dose nasal spray administration to monitor for acute, unanticipated reactions to AVP. […]
Throughout the trial, safety and tolerability were assessed weekly using the following measurements: vital signs, 12-lead electrocardiogram, clinical chemistry labs, and height and weight. Side effects were evaluated with the DOTES (51), and modified to assess potential side effects that might be related to AVP such as hyponatremia/water intoxication. […]

[7] = intranasal administration; cited from earlier work
[8] = post hoc sub-test, not corrected for multiple comparisons
[9] = Dermatological, 4-week treatment, N = 17
[10] = Gastrointestinal, 4-week treatment, N = 17
[11] = General, 4-week treatment, N = 17
[12] = HEENT, 4-week treatment, N = 17
[13] = Neurological/Psychiatric, 4-week treatment, N = 17
[14] = Renal, 4-week treatment, N = 17

CN(C)CCn1cc(C(=O)N2CCC3(CC2)OCc2ccccc23)c2ccc(Cl)cc21 [RG7713]
Improvements on overall composite tests [1]: non-significant | Ability to detect lust on an affective speech recognition task [1, 8]: reduced | Biological motion orienting preference [1, 8]: increased

NC(=O)CC[C@@H]1NC(=O)[C@H](Cc2ccccc2)NC(=O)[C@H](Cc2ccc(O)cc2)NC(=O)CCSSC[C@@H](C(=O)N2CCC[C@H]2C(=O)N[C@H](CCCN=C(N)N)C(=O)NCC(N)=O)NC(=O)[C@H](CC(N)=O)NC1=O [desmopressin, 1-deamino-8-D-arginine-vasopressin]
Treatment of ASD in children (ASD in children): not found to effectively treat ASD

NC(=O)CC[C@@H]1NC(=O)[C@H](Cc2ccccc2)NC(=O)[C@H](Cc2ccc(O)cc2)NC(=O)[C@@H](N)CSSC[C@@H](C(=O)N2CCC[C@H]2C(=O)N[C@@H](CCCN=C(N)N)C(=O)NCC(N)=O)NC(=O)[C@H](CC(N)=O)NC1=O [AVP, arginine vasopressin]
Tolerability (children with ASD [2]; 4-week intranasal treatment): well tolerated with minimal adverse effects | Adverse event rates compared to placebo-treated group (DOTES, OAS) (children with ASD [2]; 4-week treatment, parent ratings): no significant differences | Adverse event: Bug bite (children with ASD [2]; [9]): 1 (6%) counts and percentages | Adverse event: Skin burn (children with ASD [2]; [9]): 0 (0%) counts and percentages | Adverse event: Skin rash (children with ASD [2]; [9]): 1 (6%) counts and percentages | Adverse event: Constipation (children with ASD [2]; [10]): 1 (6%) counts and percentages | Adverse event: Decreased appetite (children with ASD [2]; [10]): 4 (24%) counts and percentages | Adverse event: Diarrhea (children with ASD [2]; [10]): 0 (0%) counts and percentages | Adverse event: Nausea/vomiting (children with ASD [2]; [10]): 2 (12%) counts and percentages | Adverse event: Body ache (children with ASD [2]; [11]): 1 (6%) counts and percentages | Adverse event: Cough (children with ASD [2]; [11]): 1 (6%) counts and percentages | Adverse event: Fever (children with ASD [2]; [11]): 2 (12%) counts and percentages | Adverse event: Blurred vision (children with ASD [2]; [12]): 1 (6%) counts and percentages | Adverse event: Cold sore (children with ASD [2]; [12]): 0 (0%) counts and percentages | Adverse event: Dry mouth (children with ASD [2]; [12]): 1 (6%) counts and percentages | Adverse event: Ear infection (children with ASD [2]; [12]): 0 (0%) counts and percentages | Adverse event: Nasal congestion (children with ASD [2]; [12]): 3 (18%) counts and percentages | Adverse event: Runny nose (children with ASD [2]; [12]): 0 (0%) counts and percentages | Adverse event: Sore throat (children with ASD [2]; [12]): 0 (0%) counts and percentages | Adverse event: Aggression (children with ASD [2]; [13]): 1 (6%) counts and percentages | Adverse event: Akathisia (children with ASD [2]; [13]): 1 (6%) counts and percentages | Adverse event: Decreased motor activity (children with ASD [2]; [13]): 1 (6%) counts and percentages | Adverse event: Depressive affect (children with ASD [2]; [13]): 2 (12%) counts and percentages | Adverse event: Dizziness (children with ASD [2]; [13]): 0 (0%) counts and percentages | Adverse event: Drowsiness (children with ASD [2]; [13]): 1 (6%) counts and percentages | Adverse event: Excitement/agitation (children with ASD [2]; [13]): 4 (24%) counts and percentages | Adverse event: Head banging (children with ASD [2]; [13]): 1 (7%) counts and percentages | Adverse event: Headache (children with ASD [2]; [13]): 2 (12%) counts and percentages | Adverse event: Increased motor activity (children with ASD [2]; [13]): 4 (24%) counts and percentages | Adverse event: Insomnia (children with ASD [2]; [13]): 4 (24%) counts and percentages | Adverse event: Lethargy/tiredness (children with ASD [2]; [13]): 0 (0%) counts and percentages | Adverse event: Bed wetting (children with ASD [2]; [14]): 1 (6%) counts and percentages | Adverse event: Increased urination (children with ASD [2]; [14]): 1 (6%) counts and percentages | Change from baseline LSM +/− SE: BP Change Diastolic (Standin-Sitting) (children with ASD [3]): −3.1 ± 2.65 | Change from baseline LSM +/− SE: BP Change Systolic (Standing-Sitting) (children with ASD [3]): −3.6 ± 2.76 | Change from baseline LSM +/− SE: BP, Diastolic, Sitting (children with ASD [3]): 3.2 ± 2.09 mmHg | Change from baseline LSM +/− SE: BP, Diastolic, Standing (children with ASD [3]): 0.1 ± 2.31 mmHg | Change from baseline LSM +/− SE: BP, Systolic, Sitting (children with ASD [3]): 5.5 ± 2.53 mmHg | Change from baseline LSM +/− SE: BP, Systolic, Standing (children with ASD [3]): 1.9 ± 2.38 mmHg | Change from baseline LSM +/− SE: Pulse change (children with ASD [3]): 2.1 ± 2.75 beats per minute | Change from baseline LSM +/− SE: Pulse sitting (children with ASD [3]): 1.9 ± 3.87 beats per minute | Change from baseline LSM +/− SE: Pulse standing (children with ASD [3]): 4.0 ± 3.57 beats per minute | Change from baseline LSM +/− SE: Temperature (children with ASD [3]): 0.2 ± 0.17 ° F. | Changes from baseline in vital signs (children with ASD [3]): No significant changes from baseline | Changes from baseline in 12-lead electrocardiogram (children with ASD [4]): No significant changes from baseline | Change from baseline LSM +/− SE: Bazett’s Corrected QT Interval (children with ASD [4]; electrocardiogram): -1.9 ± 5.07 ms | Change from baseline LSM +/− SE: Heart Rate (children with ASD [4]; electrocardiogram): −2.5 ± 3.75 bpm | Change from baseline LSM +/− SE: P Duration (children with ASD [4]; electrocardiogram): -2.6 ± 5.76 ms | Change from baseline LSM +/− SE: PR Intervals (children with ASD [4]; electrocardiogram): -4.6 ± 6.40 ms | Change from baseline LSM +/− SE: QRS Interval (children with ASD [4]; electrocardiogram): 0.4 ± 1.55 ms | Change from baseline LSM +/− SE: QT Interval (children with ASD [4]; electrocardiogram): 3.5 ± 5.53 ms | Change from baseline LSM +/− SE: Anion Gap (children with ASD [5]): -0.65 ± 0.78 mmol/L | Change from baseline LSM +/− SE: CO2 (children with ASD [5]): -0.12 ± 0.57 mmol/L | Change from baseline LSM +/− SE: Calcium (children with ASD [5]): 0.047 ± 0.07 mg/dL | Change from baseline LSM +/− SE: Chloride (children with ASD [5]): 1.0 ± 0.56 mmol/L | Change from baseline LSM +/− SE: Creatine (children with ASD [5]): -0.017 ± 0.03 mg/dL | Change from baseline LSM +/− SE: Glucose (children with ASD [5]): 2.2 ± 4.41 mg/dL | Change from baseline LSM +/− SE: Osmolality (Serum) (children with ASD [5]): 0.18 ± 1.01 mOsm/kg | Change from baseline LSM +/− SE: Osmolality (Urine) (children with ASD [5]): 8.5 ± 82.6 mOsm/kg | Change from baseline LSM +/− SE: Potassium (children with ASD [5]): 0.15 ± 0.11 mmol/L | Change from baseline LSM +/− SE: Sodium (children with ASD [5]): 0.24 ± 0.63 mmol/L | Change from baseline LSM +/− SE: Urea Nitrogen (children with ASD [5]): -1.3 ± 0.78 mg/dL | Changes from baseline in clinical chemistry (children with ASD [5]): No significant changes from baseline | Change from baseline LSM +/− SE: Height (children with ASD [6]): 0.8 ± 0.23 centimeters | Changes from baseline in physiological measures (children with ASD [6]): No significant changes from baseline | Cerebrospinal fluid (CSF) concentrations of measured AVP [7]: elevated
